Assay [1] deals with T1, RORγ (Homo sapiens, UniProt P51449).
T1 construct: expressed in transfected cells; host or cells: 293FT cells (Invitrogen), expression vector pFN26A (Promega)
T1 sequence (P51449 269-508 limits assumed): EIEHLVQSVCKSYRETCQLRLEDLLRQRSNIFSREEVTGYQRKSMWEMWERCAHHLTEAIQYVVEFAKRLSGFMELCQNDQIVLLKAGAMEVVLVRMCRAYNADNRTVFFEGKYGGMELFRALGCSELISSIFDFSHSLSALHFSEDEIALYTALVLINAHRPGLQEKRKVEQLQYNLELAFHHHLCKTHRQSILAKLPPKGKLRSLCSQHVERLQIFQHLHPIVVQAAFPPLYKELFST
Nature of the assay: RORγ GAL4 reporter gene assay (luciferase readout, 293FT cells). The class given is cell-based. Conditions: inhibition of RORγ (GAL4-RORγ-LBD) luciferase signal in transfected 293FT cells, overnight incubation; read-out: mean pIC50 (converted). The procedure:
Example inhibitors 1-45 were tested for their ability to inhibit RORγ activity in a RORγ GAL4 reporter gene assay.
The RORγ ligand-binding domain (LBD) was fused to the yeast GAL4 DNA binding domain (DBD) and placed under the control of the human cytomegalovirus (CMV) immediate early promoter, using expression vector pFN26A (Promega) and standard recombinant DNA cloning methods.
To monitor the inhibitory effect of compounds on RORγ, a transcriptional reporter construct was used. The pGL4.35 vector (Promega) contains nine copies of the GAL4 Upstream Activator Sequence (UAS). This sequence drives the transcription of the luciferase reporter gene luc2P in response to binding of a fusion protein containing the GAL4 DNA binding domain, as for example expressed by the GAL4-RORγ-LBD and GAL4-VP16 expression vectors described above.
The day after transfection, cells were plated into 96 well plates, test compound was added and the plates were incubated overnight. Subsequently, the firefly luciferase activity was quantified using luciferase detection reagent and luminescence readout.
1500 μL of this reagent mixture was added to 5 μg of GAL4 fusion protein expression vector and 5 μg of the transcriptional reporter construct, and incubated at RT for 20 minutes.
Subsequently, the cells were washed with Phosphate Buffered Saline (PBS) (Lonza), after which the PBS was removed. To dissociate the cells, 1 ml of TrypLE Express (Invitrogen) was added to the flask, followed by incubation at RT until the cells visually started to detach. Cells were collected in 5 mL of assay medium (DMEM culture medium (Lonza), 10% dialyzed FBS (Invitrogen) and Pen/Strep (Lonza)) to achieve a single cell suspension. 10×10^6 cells were spun down and re-suspended in 10 mL of assay medium.
For compound screening, the cells were harvested (as described above) and counted. […] 80 μL of cell suspension (60,000 cells) was plated per well into a white, flat bottom, tissue culture treated, 96 well screening plates (Greiner).
Subsequently, these solutions were diluted to 5× the final test concentration in two 10-fold-dilution steps in assay medium. The final DMSO concentration of the 5× test compound solution was 1%. 20 μL of the 5× test compound solution was added to each test well of the 96 well plate previously plated with 80 μl cell suspension, resulting in the final test concentration with 0.2% DMSO.
For the luciferase readout, the luciferase reagent (Britelite Plus, Perkin Elmer) was brought to RT. To each test well of the screening plates, 100 μL of 2.5-fold diluted Britelite Plus reagent was added, followed by incubation at RT for 10 minutes. The luciferase luminescence signal was measured using a Wallac Victor Microplate Reader (Perkin Elmer).

The subject of assay [2] is IL-17A production in anti-CD3/anti-CD28 stimulated peripheral blood mononuclear cells (PBMCs). Nature of the assay: Peripheral blood mononuclear cell (PBMC) IL-17 assay. Conditions: Homo sapiens, 120 h, read-out: mean pIC50, inhibition of IL-17A secretion (ELISA), human PBMCs, anti-CD3/anti-CD28 stimulated, 5 days (converted). Background: In an ELISA, binding on a coated surface is turned into a signal by an enzyme label.
Procedure: This assay is designed to measure the levels of IL-17A secreted from anti-CD3/anti-CD28 stimulated PBMCs with the aim of measuring RORγ mediated inhibition of IL-17A production.
The assay medium consists of 90% RPMI 1640 (Lonza), 10% heat inactivated fetal bovin serum (FBS, Lonza) and 100 U/mL penicillin/streptomycin solution.
Anti-CD3 antibody (BD Pharmingen) was diluted to 10 μg/ml in PBS (Lonza). 30 μL of 10 μg/ml anti-CD3 solution was added to the inner 60 wells, excluding any negative control wells, of a 96-well cell culture treated U-bottom plate (Greiner). Plates were incubated overnight (16-24 hours) at 37° C. and 5% CO2.
Peripheral blood mononuclear cells were separated from buffy coats (Sanquin) using Ficoll-Paque PREMIUM separation medium (GE Healthcare Life Sciences) according to manufacturer's protocol and re-suspended in assay medium at 37° C.
Test compounds were diluted, starting from a 10 mM dimethylsulfoxide (DMSO) stock solution, to serial dilutions in DMSO at 200× the final test concentration. Subsequently, these solutions were diluted in two dilution steps in assay medium to 10× the final test concentration. The DMSO concentration of the 10× test compound solution was 5%.
Anti-CD28 antibody (BD Pharmingen) was diluted to 20 μg/mL in PBS.
For compound screening, the anti-CD3 coated plates were washed three times with PBS, the wells were subsequently aspirated using vacuum. To each screening well 80 μL of the PBMC suspension, 10 μL of the anti-CD28 solution and 10 μL of the 1 Ox test compound solution was added, resulting in the final test concentration with 0.5% DMSO. All outer wells were filled with assay medium to prevent evaporation. Plates were incubated for 5 days at 37° C. and 5% CO2.
After incubation the plates were spun down at 1500 rpm for 4 minutes and the supernatant was collected. Subsequently, the IL-17A levels in the supernatants was determined using an IL-17 ELISA kit (human IL-17 DuoSet, R&D systems) according to manufacturer's protocol.
The half maximum inhibitory concentration (IC50) values for the test compounds were calculated from the IL-17A signal using GraphPad Prism software (GraphPad Software).

Bounds are passed on as bounds.

Regarding `CCS(=O)(=O)c1ccc(CC(=O)Nc2ccc(C(=O)N(c3ccccc3)C(C)(C)C3CCCO3)cc2)cc1` (centres unmarked) [Example 18, 4-{2-[4-(ethanesulfonyl)phenyl]acetamido}-N-[2-(oxolan-2-yl)propan-2-yl]-N-phenylbenzamide], the IC50 in assay [1] was no more than 10 nM; in assay [2], no more than 100 nM.
